PubChem BioAssay AID1626 (SRMLSC, 2009)

System: M. tuberculosis H37Rv growth inhibition
Assay: M. tuberculosis H37Rv growth inhibitors, H37Rv strain (AID 1626)
Settings: for IC90: measured here: IC90 against H37Rv; for CC50: measured here: Vero cell cytotoxicity

Row | SMILES | IC50 [µM] | IC90 [µM] | CC50 [µM]
1 | CNc1cc(C(F)(F)F)nc(-c2ccccn2)n1 | 40.7 | > 100 | –
2 | Cc1ccc(-c2nnc3sc(C4COc5ccccc5O4)nn23)cc1 (stereo not given) | 4.77 | > 100 | –
3 | CC1(C)C2CCC1(C)C(NC(=O)/C=C/c1ccccc1)C2 (stereo not given) | < 0.195 | 18.1 | > 40
4 | c1ccc(-c2nc(NCCCn3ccnc3)c3oc4ccccc4c3n2)cc1 | 2.81 | 3.16 | > 40
5 | Cc1c(Cc2ccccc2)c(NCCCO)n2c(nc3ccccc32)c1C#N | 2.9 | 3.35 | –
6 | CCN(CC)CCOC(=O)c1ccc(N/C=C(/C#N)c2nc(-c3ccc4c(c3)OCO4)cs2)cc1 | 13.5 | 22.6 | 7.2
7 | CC1CC1C(=O)Nc1nc(-c2ccccn2)cs1 (stereo not given) | 2.13 | 4.75 | 25.9
8 | C=CCSc1nnc(-c2ccc([N+](=O)[O-])cc2)o1 | < 0.195 | 0.843 | –
9 | CCCCCCn1c(=O)c(C(=O)Nc2nc(CC(=O)OCC)cs2)c(O)c2ccccc21 | < 0.195 | < 0.195 | 4.53
10 | O=C(O)C1CCCCC1C(=O)Nc1ccc2c(c1)CCC2 (stereo not given) | 73.5 | > 100 | –
11 | CCN(CC)C(=O)CSc1nnc2nnc3cc(Cl)ccc3n12 | 1.22 | 7.51 | 19.8
12 | OC(COC(c1ccc(Cl)cc1)c1ccc(Cl)cc1)CN1CCN(c2ccccn2)CC1 (stereo not given) | 9.79 | 28.3 | 35.3
13 | Cc1cc(/C=N/n2cnnc2)c(C)n1-c1ccc(OCc2ccc(Cl)cc2Cl)cc1 | 8.02 | 15 | 21.6
14 | Cc1ccn2c(NC3CCCC3)c(-c3ccccn3)nc2c1 | 3.19 | 5.24 | 8.93
15 | Cc1cccc(Nc2nnc(SCC(=O)Nc3cccnc3Cl)s2)c1 | 2.34 | 8.03 | –
16 | Cc1ccc(-c2ccc(/C=C/C(=O)c3ccccc3)o2)cc1 | 19.6 | > 100 | 24.7
17 | CCOC(=O)C(/C=C(\C#N)C(=O)OCC)=C(/N)N1CCN(c2ccc(Cl)cc2)CC1 | 11.7 | 13 | –
18 | O=C(N[C@H](CO)[C@H](O)c1ccc([N+](=O)[O-])cc1)C(Cl)Cl | 4.82 | 7.7 | > 40
19 | OCC#CCSc1nnc(-c2ccc(Br)cc2)o1 | 0.543 | 17.9 | –
20 | Cc1ccc(NC2=CC(=O)C(=O)c3ccccc32)cc1 | 1.49 | 1.94 | 6.94
21 | Cc1cc(C)n(-c2nc(SCC(=O)O)c3c4c(sc3n2)COC(C)(C)C4)n1 | 9.72 | > 100 | > 40
22 | CCOC(=O)c1ccc(NC(=O)CSc2ccc(-c3cccnc3)nn2)cc1 | 29.1 | > 100 | > 40
23 | O=C(CC(Nc1ccc(F)cc1)C(=O)OCC(=O)c1cccs1)c1ccccc1 (stereo not given) | 67.1 | > 100 | –
24 | O=C(Oc1ccc2cc(Br)ccc2c1)c1cccnc1 | 1.38 | > 100 | > 40
25 | COc1cccc(C(=O)Oc2ccccc2/C=C\C(=O)c2cc3ccccc3o2)c1 | 3.43 | 5.83 | 11.4
26 | O=C1C=C(Nc2ccccc2O)c2ccccc2C1=O | 23.3 | 26.6 | 13.3
27 | CCOC(=O)C1=C(c2ccccc2)NC(N)=NC1c1ccc(OCc2ccc(Cl)cc2)c(OC)c1 (stereo not given) | 4.55 | 5.57 | 22.6

Row | SMILES | IC50 [µM] | IC90 [µM] | CC50 [µM]
28 | OCCc1ccc(-c2ccc(Cl)cc2)o1 | 23.5 | > 100 | –
29 | CCN(CC)CCOC(=O)c1ccc(N/C=C(/C#N)c2nc(-c3ccc(OC)c(OC)c3)cs2)cc1 | 4.16 | 22.1 | > 40
30 | N#Cc1ccc(/C=C/C(=O)c2cccnc2)cc1 | 4.84 | 6.15 | 19.3
31 | Cc1nn(Cc2ccccc2Cl)c2sc(C(=O)NCc3ccc4c(c3)OCO4)cc12 | 5.45 | 7.16 | –
32 | COC(=O)CSc1ncnc2c1sc1nc3c(cc12)COC(C)(C)C3 | 3.1 | 10 | –
33 | O=C(Nc1ccc(Nc2ccncc2)cc1)c1ccc(Nc2ccnc3ccc([N+](=O)[O-])cc23)cc1[N+](=O)[O-] | 1.39 | 1.57 | > 40
34 | CC(C)N1CCC2(CC1)N=C(c1ccc3c(c1)OCO3)CC(c1cc(Cl)ccc1O)N2 (stereo not given) | 8.26 | 12.4 | 12.5
35 | CN(C)c1ccc(NC(=O)Cn2cc3c(n2)CCCC3)cc1 | 13 | 18.6 | –
36 | O=C(CSc1cccc2cccnc12)N1CCCC1 | – | – | 27.4
37 | C=CCOc1ccc(/C=N/O)cc1Cl | – | > 100 | –
38 | Cc1nnc(NC(=O)c2ccc3ccccc3c2)o1 | 0.719 | 1.46 | > 40
39 | COC(=O)c1ccc(C(=O)OC)c(NC(=O)CN2CCN(c3ccccc3)CC2)c1 | 66.1 | > 100 | > 40
40 | CCCCCc1cc(=O)oc2c(C(CCN3CCCC3)c3ccc(N(C)C)cc3)c(OC)cc(OC)c12 (stereo not given) | 4.38 | 6.04 | 14
41 | COc1ccc2c(c1)sc(=N)n2C | 8.91 | 11.7 | > 40
42 | COc1ccc(C(=O)Oc2cccc3cccnc23)cc1[N+](=O)[O-] | 4.12 | 4.93 | 39
43 | CCCNC1=C(N(C(C)=O)c2cccc(F)c2)C(=O)c2ccccc2C1=O | 2.75 | 4.13 | 29.9
44 | CCOC(=O)c1ccc2ncc(C(=O)OCC)c(Nc3ccc(N4CCOCC4)cc3)c2c1 | 10.9 | 22.7 | > 40
45 | O=C(CSc1nc2ccc(Nc3nc(N4CCOCC4)nc(N4CCOCC4)n3)cc2s1)NCc1ccco1 | 36.5 | > 100 | > 40
46 | Cn1c(C(C#N)C(=O)c2sc3ccccc3c2Cl)nc2ccccc21 (stereo not given) | – | – | > 40
47 | O=C(Nc1nc2ccccc2[nH]1)c1ccc(Cl)c([N+](=O)[O-])c1 | 13.7 | > 100 | > 40
48 | COc1ccc(N=C2C(=O)N3c4c(cccc42)C(C)=CC3(C)C)cc1 | – | > 100 | –
49 | CCOC(=O)CC(=O)Nc1ccc(C(=O)OCC)cc1 | 10 | > 100 | –
50 | CCCCn1c(O)c(C(C)=Nc2ccc(OCC)cc2)c(=O)[nH]c1=O | 5.45 | > 100 | > 40
51 | COc1ccc(OCCCC(=O)Nc2cccc(SC)c2)cc1 | – | > 100 | –
52 | COc1ccc(N2CCN(Cc3nc(N)nc(Nc4ccc(C)c(Cl)c4)n3)CC2)cc1 | 0.546 | 1.71 | > 40
53 | CCC(=O)Nc1nnc(-c2ccc(OC)cc2)o1 | 6.08 | > 100 | –
54 | O=C(Oc1ccc(-c2cnc3ccccc3n2)cc1)c1ccc(Cl)c([N+](=O)[O-])c1 | 5.25 | 23.4 | –

Row | SMILES | IC50 [µM] | IC90 [µM] | CC50 [µM]
55 | C/C=C/c1ccc(OCC(=O)OCc2csc(Nc3ccc(C)cc3)n2)c(OC)c1 | 3.83 | 8.62 | –
56 | Cc1sc2nc(-c3ccccn3)[nH]c(=O)c2c1-c1ccccc1 | 0.69 | 1.69 | 15.2
57 | CCOc1ccc(NCc2nnc(SCC(=O)Nc3cc(C)on3)n2-c2ccc(OC)cc2)cc1 | 35.3 | > 100 | –
58 | Cc1ccc(NC(=O)NC2CCCCC2)cc1Cl | 6.04 | > 100 | > 40
59 | CC1CCCC(NCC(O)COC(c2ccc(F)cc2)c2ccc(F)cc2)C1C (stereo not given) | 5.69 | 6.42 | 24.3
60 | CC1CCCN(c2ccc([N+](=O)[O-])s2)C1 (stereo not given) | 5.81 | 6.36 | –
61 | Cc1csc(NC(=O)c2cc([N+](=O)[O-])cc([N+](=O)[O-])c2)n1 | 11.1 | 15.9 | > 40
62 | C#CCOCCOCCOCCNc1nc(N2CCN(C(=O)[C@H](Cc3ccc(O)cc3)n3cc([C@@H](N)C(C)CC)nn3)CC2)nc(N2CCN(C(=O)[C@H](Cc3cc4ccccc4[nH]3)n3cc([C@@H](N)CC(C)C)nn3)CC2)n1 (stereo not given in full) | 7.36 | 21.5 | –
63 | O=C(Nc1nccs1)c1ccccn1 | 6.09 | 15.7 | > 40
64 | CCC(C)c1ccccc1NC(=O)CN1CCN(C/C=C/c2ccccc2)CC1 (stereo not given) | 21.9 | 35.1 | –
65 | O=C(COc1ccccc1[N+](=O)[O-])c1ccccc1 | 17 | > 100 | 30
66 | c1ccc(-c2cc3c(N4CCN(c5ccccc5)CC4)ncnc3s2)cc1 | 11.3 | > 100 | –
67 | Cc1[nH]n2c(=O)cc(C(C)(C)C)nc2c1-c1ccccc1 | 0.407 | 2.91 | 13.1
68 | O=C(Nc1ccc(F)c(Cl)c1)Nc1csc2ccccc12 | 54.9 | > 100 | 7.06
69 | CCOC(=O)c1ccc(N=Cc2nc3ccccc3n2C)cc1 | 12.7 | > 100 | –
70 | COc1cccc(-c2csc(N3CCN(C(=O)NC45CC6CC(CC(C6)C4)C5)CC3)n2)c1 | 1.09 | 1.92 | > 40
71 | O=C(CCCSc1nnc(SCCCC(=O)c2ccc(F)cc2)s1)c1ccc(F)cc1 | 0.516 | 0.654 | 26.4
72 | CC(C)(C)c1ccc(C(=O)NCCCN2CCN(CCCNC(=O)c3ccc(C(C)(C)C)cc3)CC2)cc1 | 5.43 | 7.12 | 27.4
73 | Cc1ccc(CSc2nnc(CCCCCNC(=O)OC(C)(C)C)o2)cc1 | 11.7 | 13.6 | –
74 | COc1ccc(CNC(=O)c2sc3nc4c(c(C(F)(F)F)c3c2N)CCC4)cc1OC | 12 | 18.3 | –
75 | O=C(c1ccc(Cl)cc1)C1CCCN(Cc2cnn(-c3ccccc3)c2)C1 (stereo not given) | 8.69 | 11.5 | –
76 | CC(=O)Nc1ccc(Nc2cc(C)nc3c(-c4ccccc4)c(C)nn23)cc1 | – | > 100 | > 40
77 | Cc1nc2ncccn2c1-c1csc(Nc2ccc(N(C)C)cc2)n1 | 12.8 | 16 | 3.47
78 | COc1ccc(CCNC(=O)NC23CC4CC(CC(C4)C2)C3)cc1 | 12.9 | > 100 | > 40
79 | CC1CCN(c2nc(/C=C/c3ccccc3)nc3ccccc23)CC1 | 10.1 | 12.8 | > 40
